Here are results for 13 compounds from patent US8129396B2, “2-[1H-benzimidazol-2(3H)-ylidene]-2-(pyrimidin-2-yl)acetamides and 2-[benzothiazol-2(3H)-ylidene]-2-(pyrimidin-2-yl)acetamides as kinase inhibitors” (Telik, Inc., priority 2008, dated 2012).

Molecules are shown by their SMILES.

Assay [1] relates to HCT116 (human colon carcinoma) cells. As to the kind of experiment: HCT116 cytotoxicity assay (CellTiter-Glo). The assay is classed as cell-based. The note with it: HCT-116, 72 h, cytotoxicity, three days culture, read-out: HCT116 IC50.
For assay [2], the system named is HL60 (human promyelocytic leukemia) xenograft. As to the kind of experiment: HL60 xenograft assay, oral administration. The note with it: for inhibition of tumor growth compared to vehicle: 150 mg/Kg by gavage once/day on days 1-5 and 8-10, measured 1-2 days after last treatment. The assay is classed as in vivo, athymic nu/nu mice. As to the method:
Male athymic nu/nu mice, 6-8 weeks old (about 20 g), were implanted subcutaneously in the right fore flank with about 1×10^7 cells of the HL60 (human promyelocytic leukemia) line that had been grown in antibiotic-free medium for at least two passages. About 6 days after tumor implantation, when the tumor weight was about 50-250 mg, the mice were assigned to treatment groups. […] […] Tumor growth inhibition was measured 1-2 days after the last day of treatment.

Another assay addresses T1, VEGFR2 kinase (Homo sapiens, UniProt P35968).
T1 construct: purchased Cell Signaling Technology
As to the kind of experiment: VEGFR2 kinase assay. The assay is classed as biochemical. To be noted: 6 μM ATP, 1 mM MnCl2; rounded to 1 significant figure. The procedure, abridged:
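VEGFR2 phosphorylates CSKtide with 6 μM ATP and 1 mM MnCl2 for 1 hr, otherwise following the Aurora A kinase protocol. Detection by IMAP fluorescence polarization, binding reagent diluted 1:1200 in 1:1 binding buffer A/B. Run in duplicate with solvent control.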

Assay [3] deals with HUVEC-2 (human umbilical vein endothelial cells). In words: HUVEC VEGF-dependent proliferation assay (BrdU). The assay is classed as cell-based. To be noted: VEGF (25 ng/mL)-dependent proliferation, read-out: HUVEC IC50. The procedure, abridged:
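HUVEC-2 cells on gelatin got serially diluted compound (0.5% DMSO final), and VEGF (25 ng/mL) was added 2 hr later. BrdU (10 μM) went in after one day, with labelling for another day. VEGF-dependent proliferation was read by BrdU detection, in triplicate.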

For assay [4], the system named is HCT116 (human colon carcinoma) xenograft. In words: HCT116 xenograft assay, oral administration. It counts as in vivo, athymic nu/nu mice. To be noted: for inhibition of tumor growth compared to vehicle: 150 mg/Kg by gavage once/day on days 1-5 and 8-12, measured 9 days after last treatment. The procedure:
Male athymic nu/nu mice, 6-8 weeks old (about 20 g), were implanted subcutaneously in the right fore flank with about 1×10^7 cells of the HCT116 (human colon carcinoma) line that had been grown in antibiotic-free medium for at least two passages. About 14-21 days after tumor transplantation, when the tumor weight was about 50-250 mg, the mice were assigned to treatment groups. […] Groups of mice were treated with compounds 39A, 40A, 60A, 75A, 95A, and 117A at 150 mg/Kg by gavage once/day on days 1-5 and 8-12 from the start of treatment, with vehicle control. Tumor growth inhibition was measured 9 days after the last day of treatment.

For assay [5], the system named is HL60 (human promyelocytic leukemia) cells. As to the kind of experiment: HL60 cytotoxicity assay (CellTiter-Glo). It counts as cell-based. The note with it: HL-60, 72 h, cytotoxicity, three days culture, read-out: HL60 IC50.
A further assay addresses T2, Aurora B kinase (Homo sapiens, UniProt Q96GD4).
T2 construct: purchased BPS Bioscience
As to the kind of experiment: Aurora B kinase assay (IMAP fluorescence polarization). The assay is classed as biochemical. To be noted: 10 μM ATP; rounded to 1 significant figure; read-out: Aur-B IC50. In outline: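 Reaction started with 100 nM fluorescein-labelled PKAtide and 10 μM ATP, run 45 min at room temperature, then stopped with IMAP binding reagent (1:400). After 30 min shaking at room temperature, fluorescence polarization read; run in duplicate with solvent control.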

The test system of a further assay is p-H3 in HCT116 cells. As to the kind of experiment: Histone phosphorylation (p-H3) assay. The assay is classed as cell-based. The note with it: Homo sapiens, HCT-116; HCT116 cells, 4 hr incubation; read-out: p-H3 IC50. In outline: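 HCT116 cells (2.5×10^4/well, attached overnight) treated 4 h with 8-point 3-fold compound dilutions at 0.5% DMSO. Lysates dot-blotted onto nitrocellulose and probed for p-H3 with β-actin on the same membrane, fluorescent secondary antibodies, Odyssey scan; duplicate wells.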

The next assay has as its target T3, Aurora A kinase (Homo sapiens, UniProt O14965).
T3 construct: purchased Upstate Biotech
T3 sequence (O14965 1-403): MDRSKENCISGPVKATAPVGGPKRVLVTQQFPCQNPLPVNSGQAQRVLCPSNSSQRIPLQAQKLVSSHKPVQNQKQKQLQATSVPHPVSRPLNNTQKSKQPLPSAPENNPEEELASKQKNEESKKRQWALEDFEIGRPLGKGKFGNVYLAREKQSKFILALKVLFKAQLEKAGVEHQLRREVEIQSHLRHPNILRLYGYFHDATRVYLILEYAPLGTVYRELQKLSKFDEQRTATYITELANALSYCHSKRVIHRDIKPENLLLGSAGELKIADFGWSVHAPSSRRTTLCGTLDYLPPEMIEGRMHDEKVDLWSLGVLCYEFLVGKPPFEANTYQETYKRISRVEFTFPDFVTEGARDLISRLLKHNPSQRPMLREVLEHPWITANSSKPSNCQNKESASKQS
As to the kind of experiment: Aurora A kinase assay (IMAP fluorescence polarization). It counts as biochemical. The note with it: 10 μM ATP; rounded to 1 significant figure; read-out: Aur-A IC50. The procedure, abridged:
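Compounds (eight 3-fold dilutions, 2.5% DMSO final) were preincubated 5 min at room temperature with Aurora A kinase in buffer with 1 mM DTT. Reaction with 100 nM fluorescein-PKAtide and 10 μM ATP ran 45 min at room temperature, then was stopped with IMAP binding reagent; fluorescence polarization was read after 30 min.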

[6] abbreviates: dissolved at 10 mg/mL in 0.1M sodium acetate pH5.

T2 sequence (Q96GD4 whole entry): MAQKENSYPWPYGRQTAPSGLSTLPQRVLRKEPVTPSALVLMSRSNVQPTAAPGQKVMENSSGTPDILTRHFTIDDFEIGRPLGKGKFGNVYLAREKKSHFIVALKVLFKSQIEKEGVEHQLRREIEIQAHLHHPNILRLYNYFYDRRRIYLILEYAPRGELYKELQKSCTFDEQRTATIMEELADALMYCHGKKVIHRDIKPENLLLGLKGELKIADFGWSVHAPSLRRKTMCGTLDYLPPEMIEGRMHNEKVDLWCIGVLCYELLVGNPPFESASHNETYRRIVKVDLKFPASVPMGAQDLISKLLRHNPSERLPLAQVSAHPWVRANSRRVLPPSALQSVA
T1 sequence (P35968 20-1356): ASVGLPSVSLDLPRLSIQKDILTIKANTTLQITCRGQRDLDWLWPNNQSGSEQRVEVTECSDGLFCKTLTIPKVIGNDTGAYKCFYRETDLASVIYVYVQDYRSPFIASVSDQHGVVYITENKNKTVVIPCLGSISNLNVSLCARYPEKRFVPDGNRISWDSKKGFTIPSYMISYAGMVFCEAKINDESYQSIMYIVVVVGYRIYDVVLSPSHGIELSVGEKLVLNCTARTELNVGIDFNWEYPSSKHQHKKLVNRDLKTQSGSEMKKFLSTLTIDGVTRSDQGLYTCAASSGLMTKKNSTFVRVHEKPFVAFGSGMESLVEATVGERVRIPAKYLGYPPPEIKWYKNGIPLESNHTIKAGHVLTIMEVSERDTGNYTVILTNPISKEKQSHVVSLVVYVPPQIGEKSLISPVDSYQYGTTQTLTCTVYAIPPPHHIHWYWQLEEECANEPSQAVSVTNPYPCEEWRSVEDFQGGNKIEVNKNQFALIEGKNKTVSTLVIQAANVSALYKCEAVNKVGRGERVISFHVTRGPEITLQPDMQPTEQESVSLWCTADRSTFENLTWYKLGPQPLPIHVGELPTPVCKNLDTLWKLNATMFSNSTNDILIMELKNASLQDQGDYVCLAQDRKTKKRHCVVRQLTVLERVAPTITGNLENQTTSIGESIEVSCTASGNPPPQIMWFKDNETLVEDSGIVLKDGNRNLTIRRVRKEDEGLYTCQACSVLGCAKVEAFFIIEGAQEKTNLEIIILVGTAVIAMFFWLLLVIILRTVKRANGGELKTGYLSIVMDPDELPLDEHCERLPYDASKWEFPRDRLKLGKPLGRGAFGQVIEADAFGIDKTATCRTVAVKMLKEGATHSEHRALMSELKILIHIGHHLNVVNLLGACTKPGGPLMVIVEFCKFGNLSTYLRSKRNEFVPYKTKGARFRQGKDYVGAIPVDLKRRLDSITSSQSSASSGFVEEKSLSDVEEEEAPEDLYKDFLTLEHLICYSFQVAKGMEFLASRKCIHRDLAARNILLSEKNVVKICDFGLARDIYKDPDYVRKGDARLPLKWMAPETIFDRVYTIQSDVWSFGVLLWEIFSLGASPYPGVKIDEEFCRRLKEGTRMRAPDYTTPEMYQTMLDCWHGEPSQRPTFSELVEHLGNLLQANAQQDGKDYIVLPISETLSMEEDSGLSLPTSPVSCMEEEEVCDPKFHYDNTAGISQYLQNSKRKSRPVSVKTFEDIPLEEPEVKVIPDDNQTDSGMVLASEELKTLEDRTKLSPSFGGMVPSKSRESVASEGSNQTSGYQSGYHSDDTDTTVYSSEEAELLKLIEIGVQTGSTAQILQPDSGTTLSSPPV

Take `NC(=O)C(=C1Nc2ccc(C(=O)NCCCN3CCOCC3)cc2N1)c1nccc(C(F)(F)F)n1` (single isomer, unassigned) [Compound 39A, 2-(5-{[3-(4-morpholinyl)propyl]aminocarbonyl}-1H-benzimidazol-2(3H)-ylidene)-2-(4-trifluoromethylpyrimidin-2-yl)acetamide]: the IC50 in assay [1] came out at 300 nM; against VEGFR2 kinase, 7 nM; in assay [3] it was 60 nM; in assay [5], 500 nM; on Aurora B kinase, 5 nM; in the assay with p-H3 in HCT116 cells, 900 nM. On Aurora A kinase, the IC50 amounted to 10 nM. Moreover, the entries for the “inhibition of tumor growth compared to vehicle” value (shortened to “inhibition … compared to vehicle”) in assay [2] and in assay [4] were 47% and 56%, respectively.

On to `NC(=O)C(=C1Nc2ccc(C(=O)NCCCN3CCOCC3)cc2S1)c1nccc(C(F)(F)F)n1` (single isomer, unassigned) [Compound 40A, 2-(6-{[3-(4-morpholinyl)propyl]aminocarbonyl}-benzothiazol-2(3H)-ylidene)-2-(4-trifluoromethylpyrimidin-2-yl)acetamide], for which the 50% inhibitory concentration (IC50) in [1] was 200 nM; against VEGFR2 kinase it was 3 nM; in assay [3] it was 30 nM; in [5], 7000 nM; at Aurora B kinase it was 7 nM; with p-H3 in HCT116 cells it was 500 nM. Also, the IC50 on Aurora A kinase worked out at 3 nM. Further, the “inhibition … compared to vehicle” value in assay [4] is given as 18%.

Turning to `NC(=O)C(=C1Nc2ccc(OCCn3ccnc3)cc2S1)c1nccc(C(F)(F)F)n1` (single isomer, unassigned) [Compound 117A, 2-{6-[2-(1H-imidazol-1-yl)ethoxy]benzothiazol-2(3H)-ylidene}-2-(4-trifluoromethylpyrimidin-2-yl)acetamide], the half-maximal inhibitory concentration (IC50) was 800 nM in assay [1]; 20 nM at VEGFR2 kinase; 60 nM in [3]; 8 nM at Aurora B kinase; 300 nM with p-H3 in HCT116 cells; 10 nM on Aurora A kinase. Moreover, in assay [4], the “inhibition … compared to vehicle” value is given as 42%.

On to `CCN(CCCN1CCOCC1)C(=O)c1ccc2c(c1)N/C(=C(/C(N)=O)c1nccc(C(F)(F)F)n1)N2` [Compound 41A], for which the concentration for half-maximal inhibition (IC50) in [1] is 700 nM; against VEGFR2 kinase, 4 nM; in [3], 200 nM; in assay [5] it was 100 nM; at Aurora B kinase, 4 nM; in the assay on p-H3 in HCT116 cells it was 100 nM. In addition, the IC50 on Aurora A kinase was 6 nM. The “inhibition … compared to vehicle” value in assay [2] worked out at 81%.

Take `NC(=O)/C(=C1\Nc2ccc(C(=O)N3CCNCC3)cc2N1)c1nccc(C(F)(F)F)n1` [Compound 60A]: the concentration for half-maximal inhibition (IC50) is 200 nM in assay [1]; 5 nM against VEGFR2 kinase; 80 nM in assay [3]; 7 nM at Aurora B kinase; 200 nM with p-H3 in HCT116 cells; 10 nM on Aurora A kinase. The “inhibition … compared to vehicle” value in [4] stood at 37%.

On to `CCN(CC)CC(=O)Nc1ccc2c(c1)N/C(=C(/C(N)=O)c1nccc(C(F)(F)F)n1)N2` [Compound 75A], for which the IC50 in assay [1] amounted to 1000 nM; against VEGFR2 kinase it was 50 nM; in assay [3], 200 nM; on Aurora B kinase, 10 nM; with p-H3 in HCT116 cells it was 400 nM; on Aurora A kinase, 60 nM. Besides, the “inhibition … compared to vehicle” value stood at 72% in assay [2] and 60% in assay [4].

For the compound `CN1CCC[C@H]1C(=O)Nc1ccc2c(c1)N/C(=C(/C(N)=O)c1nccc(C(F)(F)F)n1)N2` [Compound 77A], the IC50 was 200 nM in assay [1]; 9 nM on VEGFR2 kinase; 90 nM in [3]; 300 nM in assay [5]; 7 nM at Aurora B kinase; 100 nM with p-H3 in HCT116 cells. Also, at Aurora A kinase, the concentration for half-maximal inhibition (IC50) was determined as 8 nM. In addition, in assay [2], the “inhibition … compared to vehicle” value is given as 75%.

On to `NC(=O)/C(=C1\Nc2ccc(NC(=O)CCCN3CCOCC3)cc2N1)c1nccc(C(F)(F)F)n1` [Compound 85A], for which the half-inhibitory concentration (IC50) in [1] is 300 nM; against VEGFR2 kinase it was 20 nM; in assay [3], 20 nM; in [5], 60 nM; at Aurora B kinase, 4 nM; in the assay with p-H3 in HCT116 cells, 50 nM. For the same compound, the IC50 on Aurora A kinase worked out at 5 nM. Further, the “inhibition … compared to vehicle” value in [2] was found to be 45%.

Consider `NC(=O)/C(=C1\Nc2ccc(CCN3CCOCC3)cc2S1)c1nccc(C(F)(F)F)n1` [Compound 101A], for which the half-inhibitory concentration (IC50) in assay [1] turned out to be 1000 nM; at VEGFR2 kinase, 20 nM; in assay [3], 50 nM; in assay [5], 2000 nM; on Aurora B kinase it was 9 nM; with p-H3 in HCT116 cells, 1000 nM. Moreover, the IC50 on Aurora A kinase is 7 nM. The “inhibition … compared to vehicle” value in [2] stood at 38%.

For `CCN(CC)CC(=O)N(CC)c1ccc2c(c1)N/C(=C(/C(N)=O)c1nccc(C(F)(F)F)n1)N2` [Compound 139A], the half-inhibitory concentration (IC50) in assay [1] came out at 30 nM; on VEGFR2 kinase it was 30 nM; in assay [5] it was 40 nM; at Aurora B kinase, 2 nM; with p-H3 in HCT116 cells, 90 nM; at Aurora A kinase, 20 nM. Besides, the “tumor inhibition relative to vehicle” value in assay [2] (dissolved at 4 mg/mL in 0.1M sodium acetate pH5, dosing at 40 mg/mL) turned out to be 65%; in [4] (dissolved at 4 mg/mL in 0.1M sodium acetate pH5), 46%.

As for `CCN(C(=O)C1CCN(C)CC1)c1ccc2c(c1)N/C(=C(/C(N)=O)c1nccc(C(F)(F)F)n1)N2` [Compound 141A], the half-inhibitory concentration (IC50) in assay [1] was 900 nM; against VEGFR2 kinase it was 40 nM; in assay [3] it was 20 nM; in [5] it was 1000 nM; at Aurora B kinase it was 6 nM; in the assay with p-H3 in HCT116 cells it was 300 nM. Also, the IC50 on Aurora A kinase is 4 nM. The “tumor inhibition relative to vehicle” value in assay [2] (setting [6]) was determined as 49%.

Regarding `CN1CCCC[C@H]1C(=O)Nc1ccc2c(c1)N/C(=C(/C(N)=O)c1nccc(C(F)(F)F)n1)N2` [Compound 142A], the IC50 is 300 nM in assay [1]; 10 nM on VEGFR2 kinase; 90 nM in [3]; 200 nM in [5]; 4 nM on Aurora B kinase; 300 nM in the assay with p-H3 in HCT116 cells. Also, the IC50 on Aurora A kinase is 2 nM. In addition, the “tumor inhibition relative to vehicle” value in assay [2] (setting [6]) worked out at 89%.

Consider `CN1CCCC[C@@H]1C(=O)Nc1ccc2c(c1)N/C(=C(/C(N)=O)c1nccc(C(F)(F)F)n1)N2` [Compound 143A], for which the IC50 in assay [1] was found to be 300 nM; on VEGFR2 kinase, 30 nM; in assay [3], 80 nM; in [5], 300 nM; on Aurora B kinase it was 6 nM; in the assay on p-H3 in HCT116 cells it was 200 nM. The IC50 at Aurora A kinase amounted to 4 nM. Also, in assay [2] (setting [6]), the “tumor inhibition relative to vehicle” value worked out at 65%.
